In patent publication US20030206968A1, “Fungicidal mixtures” (priority 1999, published 2003):
Read-outs that look alike come from different tables or passages of the source.

Columns and labels:
Format in all cases: in vivo
Puccinia recondita [1] = experiment: Greenhouse, Puccinia recondita on wheat, 4 days residual; settings: Example 31
Procedure: (§1) The trials are carried out under greenhouse (Examples 1 to 32) or field conditions (Examples 33 to 40) in residual or curative applications. The fungicides are applied in single treatments, or in a combination comprising an azolopyrimidine of formula I and a compound selected from the classes (A), (B) and (C) as defined above. The compounds are applied in form of an aqueous spray mix obtained from a concentrated formulation or the technical material.
(§2) 1. Seed is planted in 6 cm diameter plastic pots and maintained in the greenhouse.
(§3) 2. When the primary leaf is fully expanded in the case of cereals or several leaves are present in the case of dicots, formulated test compounds are sprayed with a three nozzle overhead fungicide sprayer to near run-off. Alternatively, a single nozzle overhead track sprayer is used for application of the compounds to cereals at a rate of 200 l/ha. Plants are then allowed to air-dry.
(§4) 3. Inoculation precedes treatment in the case of curative evaluations and follows treatment in case of residual evaluations. For inoculation of powdery mildew disease, plants are set up on greenhouse benches with bottom watering mats and inoculated by dusting them with conidia from infected plants. Between inoculation and treatment for curative evaluations and between treatment and inoculation for residual evaluations, plants are maintained in the greenhouse with bottom watering.
(§5) For inoculation of non-powdery mildew diseases, an aqueous spore suspension of the pathogen is applied to the plant and the plants are kept 1-2 days in a moist infection chamber before being returned to the greenhouse where they are maintained by bottom watering.
(§6) 4. Disease on the foliage as percent leaf area with disease symptoms/signs is evaluated about 7 days after inoculation. In the case of wheat, the tips and bases of the leaves are excluded from the evaluation. [formula]
(§7) 1. Technical compounds are formulated in a solvent/surfactant system consisting of 5% acetone and 0.05% Tween 20 in deionized water. Compounds are dissolved in acetone prior to addition of the water; the Tween 20 can be added through either the acetone or the water. Dilutions are made using the solvent/surfactant system. Formulated compounds are prepared using deionized water.
(§8) 2. Two kinds of controls are included: Plants treated with the solvent/surfactant solution and inoculated (Solvent Blank). Untreated plants which are inoculated (Inoculated Control).
(§9) Assessments of the diseases took place at the indicated day after the application of the compounds. Per cent infected leaf area infected was evaluated. The efficacy of the compounds/compounds mixtures to control the diseases was calculated by using the formula given above under item 4: […]
(§10) Synergy was calculated using the % disease control values of specific treatments for the two COLBY formula given hereinabove
Fungicidal efficacy of the mixture of (S)-Azolopyrimidine C in admixture with Azoxystrobin or Trifloxystrobin (4 days residual) against Puccinia recondita on wheat. The tank mixes were obtained from technical material of (S)-Azolopyrimidine C and Azoxystrobin or Trifloxystrobin.

Blumeria graminis = experiment: Greenhouse, Blumeria graminis on wheat, 4 days residual; settings: Example 30
Procedure: as §1, §2, §3, §4, §6, §7, §8, §9, §10
Fungicidal efficacy of the mixture of (S)-Azolopyrimidine C in admixture with Azoxystrobin or Trifloxystrobin (4 days residual) against Blumeria graminis on wheat. The tank mixes were obtained from technical material of (S)-Azolopyrimidine C and Azoxystrobin or Trifloxystrobin.

Puccinia recondita [2] = experiment: Greenhouse, Puccinia recondita on wheat, 2 days curative; settings: Example 28
Procedure: as §1, §2, §3, §4, §5, §6, §7, §8, §9, §10
Fungicidal efficacy of the mixture of (S)-Azolopyrimidine C in admixture with Azoxystrobin or Trifloxystrobin (2 days curative) against Puccinia recondita on wheat. The tank mixes were obtained from technical material of (S)-Azolopyrimidine C and Azoxystrobin or Trifloxystrobin.

Puccinia recondita [3] = experiment: Greenhouse, Puccinia recondita on wheat, 1 day residual; settings: Puccinia recondita, read-out: Observed Efficacy; for pest or weed control at 0.06 ppm: dose rate 0.06 ppm; for pest or weed control at 0.25 ppm: dose rate 0.25 ppm; for pest or weed control at 1 ppm: dose rate 1 ppm; for pest or weed control at 4 ppm: dose rate 4 ppm
Text: as §1, with “The” for “The trials are carried out under greenhouse (Examples 1 to 32) or field conditions (Examples 33 to 40) in residual or curative applications. The”
as §2, §3, §4, §5, §6, §7, §8, §9, §10
Fungicidal efficacy of the mixture of Azolopyrimidine C+metconazole (1 day residual) against Puccinia recondita on wheat The tank mix was obtained from a SC formulation containing 100 g Azolopyrimidine C per liter and an EC containing 100 g metconazole per liter. […]
Fungicidal efficacy of the mixture of Azolopyrimidine C+fluazinam (1 day residual) against Puccinia recondita on wheat The tank mix was obtained from technical material of Azolopyrimidine C and a SC formulation containing 500 g fluazinam per liter. […]

## 5-chloro-6-(2,4,6-trifluorophenyl)-7-(1,1,1-trifluoroprop-2-ylamino)-[1,2,4]triazolo[1,5-a]pyrimidine [(S)-Azolopyrimidine C]
Puccinia recondita [1]; dose rate 3.1 ppm
  Observed Efficacy: 0%
Puccinia recondita [1]; dose rate 6.3 ppm
  Observed Efficacy: 9%
Puccinia recondita [1]; dose rate 12.5 ppm
  Observed Efficacy: 16%
Puccinia recondita [1]; dose rate 25 ppm
  Observed Efficacy: 27%
Puccinia recondita [1]; dose rate 50 ppm
  Observed Efficacy: 50%
Blumeria graminis; dose rate 3.1 ppm
  Observed Efficacy: 0%
Blumeria graminis; dose rate 6.3 ppm
  Observed Efficacy: 0%
Blumeria graminis; dose rate 12.5 ppm
  Observed Efficacy: 3%
Blumeria graminis; dose rate 25 ppm
  Observed Efficacy: 11%
Blumeria graminis; dose rate 50 ppm
  Observed Efficacy: 34%
Puccinia recondita [2]; dose rate 1.6 ppm
  Observed Efficacy: 0%
Puccinia recondita [2]; dose rate 3.1 ppm
  Observed Efficacy: 0%
Puccinia recondita [2]; dose rate 6.3 ppm
  Observed Efficacy: 8%
Puccinia recondita [2]; dose rate 12.5 ppm
  Observed Efficacy: 23%
Puccinia recondita [2]; dose rate 25 ppm
  Observed Efficacy: 54%

## CC(Nc1c(-c2c(F)cc(F)cc2F)c(Cl)nc2ncnn12)C(F)(F)F (stereo not shown) [Azolopyrimidine C, 5-chloro-6-(2,4,6-trifluorophenyl)-7-(1,1,1-trifluoroprop-2-ylamino)-[1,2,4]triazolo[1,5-a]pyrimidine]
Puccinia recondita [3]; Example 11, dose rate 2 ppm
  pest or weed control at 2 ppm: 2%
Puccinia recondita [3]; Example 11, dose rate 8 ppm
  pest or weed control at 8 ppm: 1%
Puccinia recondita [3]; Example 11, dose rate 10 ppm
  pest or weed control at 10 ppm: 3%
Puccinia recondita [3]; Example 11, dose rate 25 ppm
  pest or weed control at 25 ppm: 5%
Puccinia recondita [3]; Example 11, dose rate 40 ppm
  pest or weed control at 40 ppm: 10%
Puccinia recondita [3]; Example 11, dose rate 125 ppm
  pest or weed control at 125 ppm: 20%
Puccinia recondita [3]; Example 11, dose rate 200 ppm
  pest or weed control at 200 ppm: 35%
Puccinia recondita [3]; Example 13
  pest or weed control at 0.06 ppm: 8%
  pest or weed control at 0.25 ppm: 41%
  pest or weed control at 1 ppm: 71%
  pest or weed control at 4 ppm: 100%
Puccinia recondita [3]; Example 14
  pest or weed control at 0.06 ppm: 8%
  pest or weed control at 1 ppm: 71%
  pest or weed control at 4 ppm: 100%
Puccinia recondita [3]; Example 15
  pest or weed control at 0.06 ppm: 8%
  pest or weed control at 0.25 ppm: 49%
  pest or weed control at 1 ppm: 71%
  pest or weed control at 4 ppm: 100%
Puccinia recondita [3]; Example 19
  pest or weed control at 0.06 ppm: 8%
  pest or weed control at 0.25 ppm: 49%
  pest or weed control at 1 ppm: 71%
  pest or weed control at 4 ppm: 100%
Puccinia recondita [3]; Example 20, dose rate 0.86 ppm
  pest or weed control at 0.86 ppm: 8%
Puccinia recondita [3]; Example 21
  pest or weed control at 0.06 ppm: 8%
Puccinia recondita [3]; Example 22
  pest or weed control at 1 ppm: 71%
